Reference: patent US20080227801A1, “Pharmaceutical Compositions Containing Erythrina Mulungu Derivatives, Processes for their Production and Uses Thereof” (priority 2005, published 2008)
Where “and” joins values, the source holds several entries; their conditions need not be identical. Equal values may be shown once. Entries after “also recorded” stand apart in the source; their conditions may differ.

How the values were obtained:
Format in all cases: in vivo, Swiss mice
house mice = assay: Labyrinth in high T (elevated T maze) test; parameters: key to Escape: latency in seconds (maximum 300 s); details: for Anxiolytic effect in Labyrinth in high T (in words): 3 and 10 mg/kg, oral via; for Escape / Inhibitory avoidance E1 / Inhibitory avoidance E2 / Inhibitory avoidance E3 / Inhibitory avoidance E4 / Inhibitory avoidance LB (basal latency): acute, mean ± EPM
Protocol: Swiss mice weighing 25-35 g from the central animal laboratory of the Sao Paulo State University (UNESP/Araraquara) were used.
Accordingly, lyophilized hydroalcoholic extract (50, 100, 200 and 400 mg/kg) was used, in addition to F2 (3, 6, 10, 17 and 30 mg/kg) and the alkaloids erythrartine, erythravine and 11-OH-erythravine (3 and 10 mg/kg), administered via oral intake by gavage. The standard drug used was Diazepam (DZP) in a dose of 2 mg/kg (via intraperitoneal, i.p).
The Labyrinth in high T is made with transparent glass walls and wooden floor and consists of a closed arm (30×5×15 cm) perpendicularly linked to two open arms (30×5×0.25 cm), raised at 38.5 cm above the floor by a wooden support. In this test, five consecutive measures of inhibitory avoidance were performed (basal latency, avoidances 1, 2, 3 and 4) and one measure of escape from the open arms, with intervals of 30 seconds between each attempt. In the avoidance measures, the animals were placed in the distal section of the closed arm and the exit latency of this arm, on all four paws, towards the open arm was timed. In the escape measure, the animals were placed in the extremity of the right-hand open arm and the departure time from this arm was measured. The animals' maximum length of stay in the arms of the maze during these measures was 300 seconds. The apparatus was cleaned with ethanol 20% after testing each animal.
The results obtained from the Labyrinth in high T submitted to a two-way analysis of variance (ANOVA), with treatment being an independent factor and attempts being a dependent factor.

house mouse [1] = assay: Clear-dark (light/dark) transition model; details: for Number of transitions between two compartments / Time spent in illuminated compartment: acute, mean ± EPM; for Effect on time spent in illuminated compartment (in words): versus control; for Anxiolytic effect in clear-dark model transition (in words): oral via, doses of 3 and 10 mg/kg
house mouse [2] = assay: Locomotion activity test in the arena
Text: In order to avoid false positives or negatives, immediately after testing in the elevated T maze, the animals were submitted to the locomotive activity test in the arena.
The apparatus consists of a white polypropylene box with a rectangular base (40×48 cm), surrounded by 30 cm high walls. The floor is subdivided into 30 squares (8×8 cm).
In this test, the animals were placed in the center of the box and their activity was video recorded for five minutes, for subsequent analysis of the number of crossings of the quadrant areas and number of stretch-attend postures (WALSH and CUMMINS, 1976).
The results obtained with the arena were submitted to a one-way ANOVA followed by the Duncan post hoc test.

[3] = 3 and 10 mg/kg oral, one-way ANOVA
[4] = 2 mg/kg i.p., acute, five minutes, mean ± EPM

## COc1cc2c(cc1OC)[C@]13C[C@@H](O)C=CC1=CCN3CC2 [ERI, erythravine]
House mice
  Anxiolytic effect in Labyrinth in high T (in words): anxiolytic effect
House mouse [1]; 3 mg/kg oral
  Number of transitions between two compartments: 19.70 ± 2.96
  Time spent in illuminated compartment: 115.40 ± 18.58
House mouse [1]; 10 mg/kg oral
  Number of transitions between two compartments: 19.80 ± 1.32
  Time spent in illuminated compartment: 112.00 ± 10.95
House mouse [1]; [3]
  Effect on number of transitions between two compartments (in words): did not show significant differences between groups
House mouse [1]; oral doses of 3 mg/kg and 10 mg/kg
  Effect on time spent in illuminated compartment (in words): expressively greater; also recorded: anxiolytic effect
House mouse [1]
  Anxiolytic effect in clear-dark model transition (in words): anxiolytic effect

## COc1cc2c(cc1OC)[C@]13C[C@@H](O)C=CC1=CCN3C[C@H]2O [11-OH, 11-hydroxy-erythravine]
House mouse [2]; 3 mg/kg
  Response on the locomotion activity test at the arena (in words): did not have an increase of the response
House mice; 3 mg/kg oral
  Escape: 21.5 ± 3.7
  Inhibitory avoidance E1: 41.8 ± 14.2
  Inhibitory avoidance E2: 96.0 ± 34.4
  Inhibitory avoidance E3: 132.3 ± 39.7
  Inhibitory avoidance E4: 194.4 ± 39.5
  Inhibitory avoidance LB (basal latency): 30.7 ± 5.8
House mice; 10 mg/kg oral
  Escape: 26.8 ± 4.8
  Inhibitory avoidance E1: 30.0 ± 6.1
  Inhibitory avoidance E2: 54.0 ± 21.1
  Inhibitory avoidance E3: 66.6 ± 30.3
  Inhibitory avoidance E4: 94.8 ± 31.7
  Inhibitory avoidance LB (basal latency): 22.6 ± 3.5
House mice
  Anxiolytic effect in Labyrinth in high T (in words): anxiolytic effect
House mouse [1]; 3 mg/kg oral
  Number of transitions between two compartments: 22.67 ± 2.66
  Time spent in illuminated compartment: 98.67 ± 13.35
House mouse [1]; 10 mg/kg oral
  Number of transitions between two compartments: 14.00 ± 1.93
  Time spent in illuminated compartment: 127.22 ± 21.83
House mouse [1]; dose of 3 mg/kg, P<0.05, listed as 11-hidroxi-erhytravine, 3 mg/kg
  Effect on number of transitions between two compartments (in words): increased the transitions
House mouse [1]; dose of 3 mg/kg, P<0.05, listed as 11-hidroxi-erythravine, 3 mg/kg
  Effect on number of transitions between two compartments (in words): increased
House mouse [1]; dose of 10 mg/kg, listed as 11-hidroxi-erhytravine, 10 mg/kg
  Effect on time spent in illuminated compartment (in words): anxiolytic effect
House mouse [1]; dose of 10 mg/kg, listed as 11-hidroxi-erythravine, 10 mg/kg
  Effect on time spent in illuminated compartment (in words): increased expressively
House mouse [1]
  Anxiolytic effect in clear-dark model transition (in words): anxiolytic effect

## CN1C(=O)CN=C(c2ccccc2)c2cc(Cl)ccc21 [DZP, Diazepam, reference compound]
House mouse [2]; [4]
  Mixings: 167.4 ± 23.6 and 169.11 ± 33.2
  Raisings: 27.33 ± 2.3 and 21.11 ± 6.7
House mice; 2 mg/kg i.p.
  Escape: 19.0 ± 3.2 and 28.4 ± 7.1 and 27.1 ± 4.6
  Inhibitory avoidance E1: 15.3 ± 3.8 and 19.1 ± 4.0 and 11.4 ± 1.4
  Inhibitory avoidance LB (basal latency): 24.6 ± 4.1 and 25.4 ± 4.1 and 25.6 ± 5.9
House mouse [1]; 2 mg/kg i.p.
  Number of transitions between two compartments: 20.10 ± 2.93 and 13.92 ± 1.34 and 17.42 ± 2.40
  Time spent in illuminated compartment: 144.20 ± 17.52 and 130.00 ± 16.76 and 140.67 ± 18.59
House mouse [1]; DZP 2 mg/kg
  Effect on time spent in illuminated compartment (in words): expressively greater; also recorded: increased expressively; also recorded: observed only for the animals group treated with DZP

## COc1cc2c(cc1OC)[C@]13C[C@@H](OC)C=CC1=CCN3C[C@H]2O [ERIT, erythrartine]
House mice
  Anxiolytic effect in Labyrinth in high T (in words): anxiolytic effect
House mouse [1]; 3 mg/kg oral
  Number of transitions between two compartments: 13.00 ± 1.56
  Time spent in illuminated compartment: 67.67 ± 8.33
House mouse [1]; 10 mg/kg oral
  Number of transitions between two compartments: 14.25 ± 1.59
  Time spent in illuminated compartment: 83.42 ± 14.17
House mouse [1]; [3]
  Effect on number of transitions between two compartments (in words): did not show signified effect
